We go through 15 compounds from US7812022B2 (GlaxoSmithKline LLC, priority 2004, dated 2010).

For one assay, the target named is T1, ErbB2 or EGFR.
T1 construct: enzymes purified from a baculovirus expression system; Reagent production was conducted essentially as described in Brignola, P. S., et al, (2002) J. Biol. Chem. 277(2): 1576-1585
The experiment in a line: ErbB family substrate phosphorylation enzyme assay (HTRF), Method A or Method B. The assay is classed as biochemical. The essentials:
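Baculovirus-expressed EGFR or ErbB2 (0.8 or 10 nM in enzyme mix) phosphorylates biotinylated Peptide C with 20 µM ATP and 0.8 µM peptide (substrate-mix levels), MnCl2, pH 7.5. Reaction ran 90 min at 20 °C with EDTA stop and HTRF anti-phosphotyrosine read. Method A: enzyme added last; Method B: 1 h enzyme–compound preincubation.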

In assay [1] the test system is BT474 and HN5 tumor cell lines. The experiment in a line: Methylene blue growth inhibition assay (cellular Method A). The assay is classed as cell-based, Human. To be noted: 3 days, read-out: Activity (Method): growth inhibition IC50 class. The method in brief: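 Colo205, BT474 and HN5 cells in DMEM/10% FBS (BT474 10,000, HN5 3,000 cells/well) treated next day with compound in DMEM, 0.3% final DMSO, for 3 days at 37° C. Biomass stained with methylene blue, solubilized, read at OD 620; IC50 interpolated by nonlinear regression from % inhibition versus vehicle.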

Another assay deals with Colo205 tumor cell lines. Nature of the assay: Methylene blue growth inhibition assay (cellular Method A), Colo205. The assay is classed as cell-based, Human. As to conditions: 3 days, read-out: Activity (Method): growth inhibition IC50 class. On the procedure: Human breast (BT474) and head and neck (HN5) were cultured in low glucose DMEM (Life Technologies 12320-032) containing 10% fetal bovine serum (FBS). Human colon tumor cells (Colo205) were cultured in DMEM (Invitrogen, 10564) containing 10% FBS. The SV40 transformed human mammary epithelial cell line HB4a was transfected with either human H-ras cDNA (HB4a r4.2) or the human c-ErbB2 cDNA (HB4a c5.2). The HB4a clones were cultured in RPMI containing 10% FBS, insulin (5 g/mL), hydrocortisone (5 g/mL), supplemented with the selection agent hygromycin B (50 g/mL). All lines were grown in a humidified incubator at 37° C. in 95% air, 5% CO2. Cells were harvested using trypsin/EDTA, counted using a haemocytometer, and plated in 100 microliters of the appropriate media, at the following densities, in a 96-well tissue culture plate (Falcon 3075): BT474 10,000 cells/well, HN5 3,000 cells/well. The next day, compounds were diluted in DMEM containing […] gentamicin, at twice the final required concentration, from 10 mM stock solutions in DMSO. 100 microliters/well of these dilutions were added to the 100 microliters of media currently on the cell plates. Medium containing 0.6% DMSO was added to control wells. Compounds diluted in DMEM were added to all cell lines. The final concentration of DMSO in all wells was 0.3%. Cells were returned to the incubator (37° C., 10% CO2) for 3 days. Medium was then removed by aspiration. Cell biomass was estimated by staining cells with 90 microliters per well methylene blue (Sigma M9140, 0.5% in 1:1 ethanol:water), and incubation at rt for at least 30 minutes. Stain was removed, and the plates rinsed by immersion in deionized water and air-dried. To release stain from the cells 100 microliters of solubilization solution was added (1% N-lauroyl sarcosine, Sodium salt, Sigma L5125, in PBS), and plates were shaken gently for about 30 minutes. Optical density at 620 nm was measured on a microplate reader. Percent inhibition of cell growth was calculated relative to vehicle treated control wells. Concentration of compound that inhibits 50% of control cell growth (IC50) was interpolated using nonlinear regression (Levenberg-Marquardt) and the equation, y=Vmax*(1−(x/(K+x)))+Y2, where “K” was equal to the IC50. Method B: Celltiter Glo® Growth Inhibition Assays

Where [2] appears, read: Method B: enzyme mix pre-incubated with compound 1 hour at 20° C., started with substrate mix.

pIC50: −log10 of the molar value. Where two headings read alike, the source gives them in different places. Where only a bound is given, the exact number is not on record here.

Regarding `CN1CCN(CCCNc2ccc(Nc3nccc(-c4c(-c5cccc(NC(=O)c6c(F)cccc6F)c5)nn5ccccc45)n3)cc2F)CC1` [Example 42, 2,6-Difluoro-N-[3-(3-{2-[(3-fluoro-4-{[3-(4-methyl-1-piperazinyl)propyl]amino}phenyl)amino]-4-pyrimidinyl}pyrazolo[1,5-a]pyridin-2-yl)phenyl]benzamide], the “Activity (Method): pIC50 class against ErbB2 or EGFR” value (“Activity (Method): pIC50 class” below) at ErbB2 or EGFR (setting [2]) is recorded as “+++ (B) (at least one pIC50 measurement of greater than 7 against either ErbB2 or EGFR)”. Besides, the pIC50 in assay [1] (Homo sapiens, BT-474, 72 h) was over 7.00; in the assay on Colo205 tumor cell lines (Homo sapiens, COLO 205, 72 h), under 6.00.
On to `O=C(Nc1cccc(-c2nn3ccccc3c2-c2ccnc(Nc3cccc(F)c3)n2)c1)c1cccs1` [Example 25, N-[3-(3-{2-[(3-fluorophenyl)amino]-4-pyrimidinyl}pyrazolo[1,5-a]pyridin-2-yl)phenyl]-2-thiophenecarboxamide], for which the “Activity (Method): pIC50 class” value on ErbB2 or EGFR (setting [2]) was “+++ (B) (at least one pIC50 measurement of greater than 7 against either ErbB2 or EGFR)”. In addition, the pIC50 was 6.00 to 7.00 in assay [1] (Homo sapiens, BT-474, 72 h) and under 6.00 with Colo205 tumor cell lines (Homo sapiens, COLO 205, 72 h).
As to `CN1CCc2ccc(Nc3nccc(-c4c(-c5cccc(NC(=O)c6c(F)cccc6F)c5)nn5ccccc45)n3)cc2C1` [Example 179, 2,6-Difluoro-N-[3-(3-{2-[(2-methyl-1,2,3,4-tetrahydro-7-isoquinolinyl)amino]-4-pyrimidinyl}pyrazolo[1,5-a]pyridin-2-yl)phenyl]benzamide], on ErbB2 or EGFR (setting [2]), the “Activity (Method): pIC50 class” value is on record as “+++ (B) (at least one pIC50 measurement of greater than 7 against either ErbB2 or EGFR)”. For the same compound, the pIC50 in assay [1] (Homo sapiens, BT-474, 72 h) was over 7.00; in the assay on Colo205 tumor cell lines (Homo sapiens, COLO 205, 72 h), 6.00 to 7.00.
Consider `O=C(Nc1cccc(-c2nn3ccccc3c2-c2ccnc(Nc3ccc(O)c(Cl)c3)n2)c1)c1c(F)cccc1F` [Example 86, N-[3-(3-{2-[(3-Chloro-4-hydroxyphenyl)amino]-4-pyrimidinyl}pyrazolo[1,5-a]pyridin-2-yl)phenyl]-2,6-difluorobenzamide], for which, on ErbB2 or EGFR (Method A: substrate mix added first, reaction started with enzyme mix), the “Activity (Method): pIC50 class” value is “+++ (A) (at least one pIC50 measurement of greater than 7 against either ErbB2 or EGFR)”. In addition, the pIC50 in assay [1] (Homo sapiens, BT-474, 72 h) was over 7.00; in the assay with Colo205 tumor cell lines (Homo sapiens, COLO 205, 72 h), under 6.00.
Turning to `O=C(Nc1cccc(-c2nn3ccccc3c2-c2ccnc(Nc3ccc4c(c3)CNCC4)n2)c1)c1ccccc1` [Example 62, N-(3-{3-[2-(1,2,3,4-Tetrahydro-7-isoquinolinylamino)-4-pyrimidinyl]pyrazolo[1,5-a]pyridin-2-yl}phenyl)benzamide], at ErbB2 or EGFR (setting [2]), the “Activity (Method): pIC50 class” value is reported as “+++ (B) (at least one pIC50 measurement of greater than 7 against either ErbB2 or EGFR)”. Also, the negative logarithm of the IC50 (pIC50) is over 7.00 in assay [1] (Homo sapiens, BT-474, 72 h) and under 6.00 in the assay on Colo205 tumor cell lines (Homo sapiens, COLO 205, 72 h).
For the compound `COc1ccc(Nc2nccc(-c3c(-c4cccc(NC(=O)c5cc(F)ccc5F)c4)nn4ccccc34)n2)cc1F` [Example 46, 2,5-Difluoro-N-{3-[3-(2-{[3-fluoro-4-(methyloxy)phenyl]amino}-4-pyrimidinyl)pyrazolo[1,5-a]pyridin-2-yl]phenyl}benzamide], the “Activity (Method): pIC50 class” value at ErbB2 or EGFR (setting [2]) is listed as “+ (B) (no pIC50 measurement greater than 6 against either ErbB2 or EGFR)”. In addition, the pIC50 in assay [1] (Homo sapiens, BT-474, 72 h) is under 6.00; in the assay with Colo205 tumor cell lines (Homo sapiens, COLO 205, 72 h) it was under 6.00.
Regarding `C=CCN(C)CCOc1cccc(Nc2nccc(-c3c(-c4cccc(NC(=O)c5c(F)cccc5F)c4)nn4ccccc34)n2)c1` [Example 195, 2,6-Difluoro-N-{3-[3-(2-{[3-({2-[methyl(2-propen-1-yl)amino]ethyl}oxy)phenyl]amino}-4-pyrimidinyl)pyrazolo[1,5-a]pyridin-2-yl]phenyl}benzamide], on ErbB2 or EGFR (setting [2]), the “Activity (Method): pIC50 class” value is “+++ (B) (at least one pIC50 measurement of greater than 7 against either ErbB2 or EGFR)”. For the same compound, the pIC50 in assay [1] (Homo sapiens, BT-474, 72 h) was 6.00 to 7.00; with Colo205 tumor cell lines (Homo sapiens, COLO 205, 72 h) it was under 6.00.
Regarding `O=C(Nc1cccc(-c2nn3ccccc3c2-c2ccnc(Nc3cccc(S(=O)(=O)CCO)c3)n2)c1)c1c(F)cccc1F` [Example 58, 2,6-Difluoro-N-(3-{3-[2-({3-[(2-hydroxyethyl)sulfonyl]-phenyl}amino)-4-pyrimidinyl]pyrazolo[1,5-a]pyridin-2-yl}phenyl)benzamide], the “Activity (Method): pIC50 class” value on ErbB2 or EGFR (setting [2]) is listed as “+++ (B) (at least one pIC50 measurement of greater than 7 against either ErbB2 or EGFR)”. Moreover, the pIC50 in assay [1] (Homo sapiens, BT-474, 72 h) was over 7.00; in the assay with Colo205 tumor cell lines (Homo sapiens, COLO 205, 72 h) it was under 6.00.
As to `O=C(Nc1cccc(-c2nn3ccccc3c2-c2ccnc(Nc3ccc4nn[nH]c4c3)n2)c1)c1c(F)cccc1F` [Example 31, N-(3-{3-[2-(1H-1,2,3-benzotriazol-5-ylamino)-4-pyrimidinyl]pyrazolo[1,5-a]pyridin-2-yl}phenyl)-2,6-difluorobenzamide], the “Activity (Method): pIC50 class” value on ErbB2 or EGFR (setting [2]) was “+++ (B) (at least one pIC50 measurement of greater than 7 against either ErbB2 or EGFR)”. Besides, the pIC50 in assay [1] (Homo sapiens, BT-474, 72 h) was over 7.00; with Colo205 tumor cell lines (Homo sapiens, COLO 205, 72 h) it was 6.00 to 7.00.
Turning to `C=CCN(C)CCOc1cccc(Nc2nccc(-c3c(-c4cccc(NC(=O)c5cc(F)ccc5F)c4)nn4ccccc34)n2)c1` [Example 196, 2,5-Difluoro-N-{3-[3-(2-{[3-({2-[methyl(2-propen-1-yl)amino]ethyl}oxy)phenyl]amino}-4-pyrimidinyl)pyrazolo[1,5-a]pyridin-2-yl]phenyl}benzamide], at ErbB2 or EGFR (setting [2]), the “Activity (Method): pIC50 class” value is recorded as “+++ (B) (at least one pIC50 measurement of greater than 7 against either ErbB2 or EGFR)”. Also, the pIC50 in assay [1] (Homo sapiens, BT-474, 72 h) is over 7.00; in the assay on Colo205 tumor cell lines (Homo sapiens, COLO 205, 72 h), 6.00 to 7.00.
With `COc1ccc(Nc2nccc(-c3c(-c4cccc(NC(=O)c5c(F)cccc5F)c4)nn4ccccc34)n2)cc1N1CCN(C)CC1` [Example 201, 2,6-Difluoro-N-{3-[3-(2-{[4-(methyloxy)-3-(4-methyl-1-piperazinyl)phenyl]amino}-4-pyrimidinyl)pyrazolo[1,5-a]pyridin-2-yl]phenyl}benzamide], the “Activity (Method): pIC50 class” value at ErbB2 or EGFR (setting [2]) is “+++ (B) (at least one pIC50 measurement of greater than 7 against either ErbB2 or EGFR)”. In addition, the pIC50 in assay [1] (Homo sapiens, BT-474, 72 h) is over 7.00; in the assay with Colo205 tumor cell lines (Homo sapiens, COLO 205, 72 h) it was 6.00 to 7.00.
As to `COc1cc(CS(C)(=O)=O)ccc1Nc1nccc(-c2c(-c3cccc(NC(=O)c4c(F)cccc4F)c3)nn3ccccc23)n1` [Example 122], on ErbB2 or EGFR (setting [2]), the “Activity (Method): pIC50 class” value is recorded as “+++ (B) (at least one pIC50 measurement of greater than 7 against either ErbB2 or EGFR)”. For the same compound, the pIC50 (in assay [1]; in the assay with Colo205 tumor cell lines) was 6.00 to 7.00 in each case.
On to `COc1ccc(-c2nn3ccccc3c2-c2ccnc(Nc3ccc4c(c3)CNCC4)n2)cc1NC(=O)c1c(F)cccc1F` [Example 159, 2,6-Difluoro-N-(2-(methyloxy)-5-{3-[2-(1,2,3,4-tetrahydro-7-isoquinolinylamino)-4-pyrimidinyl]pyrazolo[1,5-a]pyridin-2-yl}phenyl)benzamide], for which the “Activity (Method): pIC50 class” value on ErbB2 or EGFR (setting [2]) is given as “+ (B) (no pIC50 measurement greater than 6 against either ErbB2 or EGFR)”. The pIC50 was under 6.00 in assay [1] (Homo sapiens, BT-474, 72 h) and under 6.00 in the assay on Colo205 tumor cell lines (Homo sapiens, COLO 205, 72 h).
As for `CN(C)C1Cc2ccc(Nc3nccc(-c4c(-c5cccc(NC(=O)c6c(F)cccc6F)c5)nn5ccccc45)n3)cc2C1` (stereo not shown) [Example 176, N-{3-[3-(2-{[2-(Dimethylamino)-2,3-dihydro-1H-inden-5-yl]amino}-4-pyrimidinyl)pyrazolo[1,5-a]pyridin-2-yl]phenyl}-2,6-difluorobenzamide], the pIC50 in assay [1] (Homo sapiens, BT-474, 72 h) was over 7.00; in the assay with Colo205 tumor cell lines (Homo sapiens, COLO 205, 72 h) it was 6.00 to 7.00.
`NC(=O)c1ccc(Nc2nccc(-c3c(-c4cccc(NC(=O)c5c(F)cccc5F)c4)nn4ccccc34)n2)cc1` [Example 104, N-{3-[3-(2-{[4-(Aminocarbonyl)phenyl]amino}-4-pyrimidinyl)pyrazolo[1,5-a]pyridin-2-yl]phenyl}-2,6-difluorobenzamide-ethane (1:1)]: the pIC50 in assay [1] (Homo sapiens, BT-474, 72 h) was over 7.00; in the assay with Colo205 tumor cell lines (Homo sapiens, COLO 205, 72 h), 6.00 to 7.00.
